The series relates to CCRIS mutagenicity, Ames/micronucleus/aberration tests. Nature of the series: CCRIS mutagenicity studies.
Where [1] appears, read: Test System: AMES SALMONELLA TYPHIMURIUM, Strain/Indicator: TA98, Metabolic Activation: RAT, LIVER, S-9, AROCLOR 1254, Method: PREINCUBATION
Setting [2] is: Test System: AMES SALMONELLA TYPHIMURIUM, Strain/Indicator: TA100, Metabolic Activation: NONE, Method: PREINCUBATION
The mark [3] stands for this setting: Test System: AMES SALMONELLA TYPHIMURIUM, Strain/Indicator: TA100, Metabolic Activation: RAT, LIVER, S-9, AROCLOR 1254, Method: PREINCUBATION
[4] abbreviates: Test System: AMES SALMONELLA TYPHIMURIUM, Strain/Indicator: TA1535, Metabolic Activation: NONE, Method: PREINCUBATION
Where [5] appears, read: Test System: AMES SALMONELLA TYPHIMURIUM, Strain/Indicator: TA1535, Metabolic Activation: RAT, LIVER, S-9, AROCLOR 1254, Method: PREINCUBATION
The mark [6] stands for this setting: Test System: CHINESE HAMSTER V-79, Strain/Indicator: V-79/6-THIOGUANINE, Metabolic Activation: NONE.
Setting [7] is: Test System: AMES SALMONELLA TYPHIMURIUM, Strain/Indicator: TA98, Metabolic Activation: NONE, Method: PREINCUBATION
Setting [8] is: Test System: AMES SALMONELLA TYPHIMURIUM, Strain/Indicator: TA1537, Metabolic Activation: NONE, Method: PREINCUBATION
[9] abbreviates: Test System: AMES SALMONELLA TYPHIMURIUM, Strain/Indicator: TA1538, Metabolic Activation: NONE, Method: PREINCUBATION

Active and inactive are the calls of the source. The rule behind the calls is not given here.

Take `Oc1ccc(O)c(O)c1`: the mutagenic call is “active; positive (ploidy changes)” (End Point: IN VITRO CHROMOSOMAL ABERRATIONS, Test System: HUMAN PERIPHERAL LYMPHOCYTES, Metabolic Activation: NONE); “active; positive (ploidy); greater effects on certain chromosomes” (End Point: IN VITRO CHROMOSOMAL ABERRATIONS, Test System: HUMAN PERIPHERAL LYMPHOCYTES, Metabolic Activation: NONE, Method: FISH); “active; positive (ploidy changes in chromosomes 7 and 8)” (End Point: IN VITRO CHROMOSOMAL ABERRATIONS, Test System: HUMAN PERIPHERAL LYMPHOCYTES, Metabolic Activation: NONE, Method: FISH - DUAL COLOR PROBES); “inactive; negative for translocations” (End Point: IN VITRO CHROMOSOMAL ABERRATIONS, Test System: HUMAN PERIPHERAL LYMPHOCYTES, Metabolic Activation: NONE, Method: FISH- DUAL COLOR PROBES); “active; positive” (End Point: IN VITRO MICRONUCLEUS, Test System: HUMAN PERIPHERAL LYMPHOCYTES, Metabolic Activation: NONE, Method: FISH - DUAL COLOR PROBES); “inactive; negative” (Test System: AMES SALMONELLA TYPHIMURIUM, Strain/Indicator: TA97, Metabolic Activation: RAT, LIVER, S-9, AROCLOR 1254, Method: PREINCUBATION). In addition, the mutagenic call is, setting by setting: (Test System: AMES SALMONELLA TYPHIMURIUM, Strain/Indicator: TA97, Metabolic Activation: RAT, LIVER, S-9, PHENOBARBITAL, Method: PREINCUBATION) “inactive; negative”; under setting [1], “inactive; negative”; (Test System: AMES SALMONELLA TYPHIMURIUM, Strain/Indicator: TA98, Metabolic Activation: RAT, LIVER, S-9, PHENOBARBITAL, Method: PREINCUBATION) “inactive; negative”; (Test System: AMES SALMONELLA TYPHIMURIUM, Strain/Indicator: TA100, Metabolic Activation: NONE, Method: FLUCTUATION TEST) “inactive; negative”; under setting [2], “inactive; negative”; under setting [3], “inactive; negative”. In addition, the mutagenic call is, setting by setting: (Test System: AMES SALMONELLA TYPHIMURIUM, Strain/Indicator: TA100, Metabolic Activation: RAT, LIVER, S-9, PCB, Method: FLUCTUATION TEST) “active; positive”; (Test System: AMES SALMONELLA TYPHIMURIUM, Strain/Indicator: TA100, Metabolic Activation: RAT, LIVER, S-9, PHENOBARBITAL, Method: PREINCUBATION) “inactive; negative”; (Test System: AMES SALMONELLA TYPHIMURIUM, Strain/Indicator: TA102, Metabolic Activation: NONE, Method: PREINCUBATION) “inactive; negative”; (Test System: AMES SALMONELLA TYPHIMURIUM, Strain/Indicator: TA102, Metabolic Activation: RAT, LIVER, S-9, AROCLOR 1254, Method: PREINCUBATION) “inactive; negative”; (Test System: AMES SALMONELLA TYPHIMURIUM, Strain/Indicator: TA104, Metabolic Activation: NONE, Method: PREINCUBATION) “inactive; negative”; under setting [4], “inactive; negative”. The mutagenic call reads like this: under setting [5], “inactive; negative”; under setting [6], “active; positive”.
Consider `C=C(C)c1ccc(C)c2ccc(CO)c-2c1`, for which the mutagenic call is, setting by setting: (Test System: AMES SALMONELLA TYPHIMURIUM, Strain/Indicator: TA98, Metabolic Activation: NONE, Method: STANDARD PLATE) “inactive; negative”; (Test System: AMES SALMONELLA TYPHIMURIUM, Strain/Indicator: TA98, Metabolic Activation: RAT, LIVER, S-9, AROCLOR 1254, Method: STANDARD PLATE) “active; positive”; (Test System: AMES SALMONELLA TYPHIMURIUM, Strain/Indicator: TA100, Metabolic Activation: NONE, Method: STANDARD PLATE) “inactive; negative”; (Test System: AMES SALMONELLA TYPHIMURIUM, Strain/Indicator: TA100, Metabolic Activation: RAT, LIVER, S-9, AROCLOR 1254, Method: STANDARD PLATE) “active; positive”.
For the compound `OC1=C2O[C@@H]2CC[C@H]1O`, under setting [6], the mutagenic call is “active; positive”.
Turning to `CC1(C)SSC[C@@H](C(=O)O)NC1=O`, the mutagenic call by setting is: under setting [7], “inactive; negative”; under setting [2], “inactive; negative”; under setting [4], “inactive; negative”; under setting [8], “inactive; negative”; under setting [9], “inactive; negative”; (Test System: E. COLI, Strain/Indicator: WP2, Metabolic Activation: NONE, Method: PREINCUBATION) “inactive; negative”. Further, for the setting “Test System: E. COLI, Strain/Indicator: WP2 UVRA, Metabolic Activation: NONE, Method: PREINCUBATION”, the mutagenic call is “inactive; negative”.
As to `Oc1cc(O)c2cc(O)c(-c3cc(O)c(O)c(O)c3)[o+]c2c1`, the mutagenic call is “inactive; negative” under setting [7]; “inactive; negative” under setting [1]; “inactive; negative” under setting [2]; “inactive; negative” under setting [3]; “inactive; negative” under setting [4]; “inactive; negative” under setting [5]. In addition, the mutagenic call by setting is: under setting [8], “inactive; negative”; (Test System: AMES SALMONELLA TYPHIMURIUM, Strain/Indicator: TA1537, Metabolic Activation: RAT, LIVER, S-9, AROCLOR 1254, Method: PREINCUBATION) “inactive; negative”; under setting [9], “inactive; negative”; (Test System: AMES SALMONELLA TYPHIMURIUM, Strain/Indicator: TA1538, Metabolic Activation: RAT, LIVER, S-9, AROCLOR 1254, Method: PREINCUBATION) “inactive; negative”.
